According to US4398029A, “Quinoline carboxylic acid derivatives and process for the preparation” (Kyorin Seiyaku Kabushiki Kaisha, priority 1981, dated 1983):
In brackets after ≈: the same amount, converted by molar mass. Where two headings read alike, the source gives them in different places.

How the values were obtained:
[1] = system: Acinetobacter anitratus IID 876; experiment: Antibacterial activity (MIC), standard agar dilution streak method; type: cell-based; settings: Acinetobacter calcoaceticus, IID876, read-out: Minimum inhibitory concentration
Procedure: (§1) The antibacterial activities of the compounds of the present invention were assayed by the standard agar dilution streak method against Gram-positive and Gram-negative bacteria [Chemotherapy, 22, 1126 (1974)].

[2] = system: Alcaligenes faecalis 0104002; experiment: as above; type: cell-based; settings: for MIC: read-out: Minimum inhibitory concentration
Procedure: as §1

[3] = system: Bacillus subtilis PCI 219; experiment: as above; type: cell-based; settings: PCI219, read-out: Minimum inhibitory concentration
Procedure: as §1

[4] = system: Citrobacter freundii IID 976; experiment: as above; type: cell-based; settings: read-out: Minimum inhibitory concentration
Procedure: as §1

[5] = system: Enterobacter cloacae IID 977; experiment: as above; type: cell-based; settings: read-out: Minimum inhibitory concentration
Procedure: as §1

[6] = system: Escherichia coli NIHJ JC-2; experiment: as above; type: cell-based; settings: for MIC: read-out: Minimum inhibitory concentration
Procedure: as §1

[7] = system: Klebsiella pneumoniae IFO 3512; experiment: as above; type: cell-based; settings: read-out: Minimum inhibitory concentration
Procedure: as §1

[8] = system: P. mirabilis IID 994; experiment: as above; type: cell-based; settings: Proteus mirabilis, IID994, read-out: Minimum inhibitory concentration
Procedure: as §1

[9] = system: P. morganii IID 602; experiment: as above; type: cell-based; settings: Morganella morganii, read-out: Minimum inhibitory concentration
Procedure: as §1

[10] = system: Proteus vulgaris 3167; experiment: as above; type: cell-based; settings: read-out: Minimum inhibitory concentration
Procedure: as §1

[11] = system: Pseudomonas aeruginosa V-1; experiment: as above; type: cell-based; settings: read-out: Minimum inhibitory concentration
Procedure: as §1

[12] = system: S. epidermidis IID 866; experiment: as above; type: cell-based; settings: Staphylococcus epidermidis, IID866, read-out: Minimum inhibitory concentration
Procedure: as §1

[13] = system: Salmonella enteritidis IID 604; experiment: as above; type: cell-based; settings: Salmonella enterica, read-out: Minimum inhibitory concentration
Procedure: as §1

[14] = system: Serratia marcescens IID 618; experiment: as above; type: cell-based; settings: for MIC: read-out: Minimum inhibitory concentration
Procedure: as §1

[15] = system: Staphylococcus aureus 209 p; experiment: as above; type: cell-based; settings: for MIC: read-out: Minimum inhibitory concentration
Procedure: as §1

[16] = system: Yersinia enterocolitica IID 981; experiment: as above; type: cell-based; settings: read-out: Minimum inhibitory concentration
Procedure: as §1

[17] = system: S. aureus Terajima; experiment: as above; type: cell-based, Staphylococcus aureus; settings: Staphylococcus aureus, read-out: Minimum inhibitory concentration
Procedure: as §1

[18] = system: E. coli ATCC 10536; experiment: as above; type: cell-based, Escherichia coli; settings: for MIC: Escherichia coli, ATCC10536, read-out: Minimum inhibitory concentration
Procedure: as §1

[19] = system: Shigella sonnei IID 969; experiment: microbe, parasite or virus in culture; type: cell-based; settings: read-out: Minimum inhibitory concentration
Procedure: as §1

[20] = system: P. aeruginosa IFO 12689; experiment: Antibacterial activity (MIC), standard agar dilution streak method; type: cell-based, Pseudomonas aeruginosa; settings: Pseudomonas aeruginosa, IFO12689, P. aeruginosa IFO 12689; read-out: Minimum inhibitory concentration
Procedure: as §1

[21] = IID976, Citrobacter freundii IID 976
[22] = IID977, Enterobacter cloacae IID 977
[23] = NIHJJC2, Escherichia coli NIHJ JC-2
[24] = IFO3512, Klebsiella pneumoniae IFO 3512
[25] = IID618, Serratia marcescens IID 618
[26] = IID981, Yersinia enterocolitica IID 981
[27] = Alcaligenes faecalis, 0104002, Alcaligenes faecalis 0104002
[28] = Citrobacter freundii, IID976, Citrobacter freundii IID 976
[29] = Klebsiella pneumoniae, IFO3512, Klebsiella pneumoniae IFO 3512
[30] = Proteus vulgaris, 3167, Proteus vulgaris 3167
[31] = Serratia marcescens, IID618, Serratia marcescens IID 618
[32] = Yersinia enterocolitica, IID981, Yersinia enterocolitica IID 981
[33] = Shigella sonnei, IID969, Shigella sonnei IID 969
[34] = Pseudomonas aeruginosa, V1, Pseudomonas aeruginosa V-1

| SMILES | MIC [1] [µg/mL] | MIC ([2]; Alcaligenes faecalis 0104002) [µg/mL] | MIC [4, 21] [µg/mL] | MIC [5, 22] [µg/mL] | MIC [6, 23] [µg/mL] | MIC [7, 24] [µg/mL] | MIC ([10]; Proteus vulgaris 3167) [µg/mL] | MIC [12] [µg/mL] | MIC [14, 25] [µg/mL] | MIC [16, 26] [µg/mL] | MIC [18] [µg/mL] | MIC [20] [µg/mL] | MIC ([3]; Bacillus subtilis PCI 219) [µg/mL] | MIC [4, 28] [µg/mL] | MIC [7, 29] [µg/mL] | MIC ([9]; IID602, P. morganii IID 602) [µg/mL] | MIC ([13]; Salmonella enteritidis IID 604) [µg/mL] | MIC ([15]; Staphylococcus aureus 209 p) [µg/mL] | MIC [19, 33] [µg/mL] | MIC ([17]; S. aureus Terajima) [µg/mL] | further results |
| --- | --- | --- | --- | --- | --- | --- | --- | --- | --- | --- | --- | --- | --- | --- | --- | --- | --- | --- | --- | --- | --- |
| CCN1CCN(c2c(F)cc3c(=O)c(C(=O)O)cn(CC)c3c2F)CC1 [Example 7, 1-Ethyl-7-(4-ethyl-1-piperazinyl)-6,8-difluoro-1,4-dihydro-4-oxoquinoline-3-carboxylic acid] | 0.39 (≈ 1.07 µM) | 1.56 (≈ 4.27 µM) | 0.2 (≈ 0.547 µM) | 0.39 (≈ 1.07 µM) | ≤ 0.05 | ≤ 0.05 | ≤ 0.05 | 0.78 (≈ 2.13 µM) | 0.39 (≈ 1.07 µM) | 0.2 (≈ 0.547 µM) | 0.1 (≈ 0.274 µM) | 6.25 (≈ 17.1 µM) |  |  |  |  |  |  |  |  | MIC ([3]; Bacillus subtilis): 0.1 µg/mL (≈ 0.274 µM); MIC [8]: 0.2 µg/mL (≈ 0.547 µM); MIC ([9]; IID602): 0.39 µg/mL (≈ 1.07 µM); MIC ([11]; Pseudomonas aeruginosa, V1): 6.25 µg/mL (≈ 17.1 µM); MIC [13]: 0.39 µg/mL (≈ 1.07 µM); MIC ([15]; Staphylococcus aureus, 209P): 0.78 µg/mL (≈ 2.13 µM); MIC [17]: 0.78 µg/mL (≈ 2.13 µM); MIC ([19]; IID969, Shigella sonnei IID 969): 0.1 µg/mL (≈ 0.274 µM) |
| CCn1cc(C(=O)O)c(=O)c2cc(F)c(N3CCCC(O)C3)c(F)c21 (stereo not drawn) [Example 10, 1-Ethyl-6,8-difluoro-1,4-dihydro-7-(3-hydroxy-1-piperidinyl)-4-oxoquinoline-3-carboxylic acid] | 1.56 (≈ 4.43 µM) |  |  | 6.25 (≈ 17.7 µM) |  |  |  | 0.78 (≈ 2.21 µM) |  |  | 0.78 (≈ 2.21 µM) | 25 (≈ 71 µM) | ≤ 0.05 | 1.56 (≈ 4.43 µM) | 0.1 (≈ 0.284 µM) | 1.56 (≈ 4.43 µM) | 6.25 (≈ 17.7 µM) | 0.2 (≈ 0.568 µM) | 0.78 (≈ 2.21 µM) |  | MIC [2, 27]: 3.13 µg/mL (≈ 8.88 µM); MIC [10, 30]: 0.1 µg/mL (≈ 0.284 µM); MIC ([11]; V1, Pseudomonas aeruginosa V-1): 25 µg/mL (≈ 71 µM); MIC [14, 31]: 3.13 µg/mL (≈ 8.88 µM); MIC [16, 32]: 1.56 µg/mL (≈ 4.43 µM) |
| CCn1cc(C(=O)O)c(=O)c2cc(F)c(N3CCC(O)CC3)c(F)c21 [Example 9, 1-Ethyl-6,8-difluoro-1,4-dihydro-7-(4-hydroxy-1-piperidinyl)-4-oxoquinoline-3-carboxylic acid] | 1.56 (≈ 4.43 µM) |  |  |  |  |  |  | 0.39 (≈ 1.11 µM) |  |  |  | 12.5 (≈ 35.5 µM) | ≤ 0.05 | 0.78 (≈ 2.21 µM) | ≤ 0.05 | 0.78 (≈ 2.21 µM) | 1.56 (≈ 4.43 µM) |  | 0.2 (≈ 0.568 µM) | 0.2 (≈ 0.568 µM) | Minimum inhibitory concentration ([2]; Alcaligenes faecalis 0104002): 1.56 µg/mL (≈ 4.43 µM); Minimum inhibitory concentration ([6]; Escherichia coli NIHJ JC-2): 0.20 µg/mL (≈ 0.568 µM); MIC [10, 30]: ≤ 0.05 µg/mL; MIC [11, 34]: 6.25 µg/mL (≈ 17.7 µM); Minimum inhibitory concentration ([14]; Serratia marcescens IID 618): 1.56 µg/mL (≈ 4.43 µM); Minimum inhibitory concentration ([15]; Staphylococcus aureus 209 p): 0.20 µg/mL (≈ 0.568 µM); MIC [16, 32]: 0.78 µg/mL (≈ 2.21 µM); Minimum inhibitory concentration [18]: 0.20 µg/mL (≈ 0.568 µM) |
| CN1CCN(c2c(F)cc3c(=O)c(C(=O)O)cn(CCF)c3c2F)CC1.Cl [Example 5, 6,8-Difluoro-1-(2-fluoroethyl)-1,4-dihydro-7-(4-methyl-1-piperazinyl)-4-oxoquinoline-3-carboxylic acid hydrochloride] | 0.39 |  |  |  |  |  |  | 0.78 |  |  | 0.1 | 3.13 | 0.1 | ≤ 0.05 | ≤ 0.05 | 0.1 |  | 0.78 | ≤ 0.05 | 0.78 | MIC [2, 27]: 0.78 µg/mL; MIC ([5]; Enterobacter cloacae, IID977, Enterobacter cloacae IID 977): 0.1 µg/mL; MIC ([6]; Escherichia coli, NIHJJC2, Escherichia coli NIHJ JC-2): ≤ 0.05 µg/mL; MIC ([8]; P. mirabilis IID 994): ≤ 0.05 µg/mL; MIC [10, 30]: ≤ 0.05 µg/mL; MIC ([11]; V1, Pseudomonas aeruginosa V-1): 3.13 µg/mL; MIC [14, 31]: 0.1 µg/mL; MIC [16, 32]: 0.1 µg/mL |
| Cl.O=C(O)c1cn(CCO)c2c(F)c(N3CCNCC3)c(F)cc2c1=O [Example 14, 6,8-Difluoro-1,4-dihydro-1-(2-hydroxyethyl)-4-oxo-7-(1-piperazinyl)-quinoline-3-carboxylic acid hydrochloride] | 25 | 100 | 0.2 | 0.39 | 0.39 | 0.39 | 0.39 | 12.5 | 6.25 | 0.39 | 0.39 | 12.5 | 3.13 |  |  |  | 0.39 | 12.5 | 0.2 | 25 |  |
| C=CCn1cc(C(=O)O)c(=O)c2cc(F)c(N3CCNCC3)c(F)c21.Cl [Example 3, 1-Allyl-6,8-difluoro-1,4-dihydro-4-oxo-7-(1-piperazinyl)quinoline-3-carboxylic acid hydrochloride] | 3.13 | 3.13 | 0.2 | 0.78 |  | 0.1 | 0.1 | 3.13 | 0.39 | 0.39 | 0.39 | 6.25 | 0.39 |  |  | 0.39 | 0.2 | 3.13 | 0.1 | 3.13 | MIC ([8]; P. mirabilis IID 994): 0.2 µg/mL; MIC [11, 34]: 12.5 µg/mL |
| Cl.Cn1cc(C(=O)O)c(=O)c2cc(F)c(N3CCNCC3)c(F)c21 [Example 1, 6,8-Difluoro-1,4-dihydro-1-methyl-4-oxo-7-(1-piperazinyl)quinoline-3-carboxylic acid hydrochloride] | 1.56 | 6.25 | ≤ 0.05 | 0.1 | ≤ 0.05 | ≤ 0.05 |  | 3.13 | 0.1 | 0.1 | 0.1 | 1.56 | 0.39 |  |  | 0.2 | 0.1 | 3.13 | ≤ 0.05 | 3.13 | MIC ([8]; P. mirabilis IID 994): 0.1 µg/mL; MIC [11, 34]: 3.13 µg/mL |
